According to ChEMBL document CHEMBL1149672, “Synthesis of cryptolepine analogues as potential bioreducible anticancer agents” (Bioorg Med Chem, 2007):
Structures can show the parent of a compound that is named as a salt.

Experiments:
[1] = test system: RT-112; test: Cytotoxicity against NQO2 expressing human RT112 cells by MTT assay; format: functional, cell-based
[2] = test system: RT-112; test: Cytotoxicity against NQO2 expressing human RT112 cells in presence of NRH cofactor by MTT assay; format: functional, cell-based
[3] = test system: RT-112; test: Selectivity ratio of IC50 for RT112 cells in presence of cofactor NRH to IC50 for RT112 cells; format: functional, Homo sapiens
[4] = target: NAD(P)H dehydrogenase [quinone] 1 (Homo sapiens) (UniProt P15559); test: Activity of recombinant human NQO1 assessed as specific activity
Sequence of NAD(P)H dehydrogenase [quinone] 1 (Homo sapiens) (P15559 whole entry): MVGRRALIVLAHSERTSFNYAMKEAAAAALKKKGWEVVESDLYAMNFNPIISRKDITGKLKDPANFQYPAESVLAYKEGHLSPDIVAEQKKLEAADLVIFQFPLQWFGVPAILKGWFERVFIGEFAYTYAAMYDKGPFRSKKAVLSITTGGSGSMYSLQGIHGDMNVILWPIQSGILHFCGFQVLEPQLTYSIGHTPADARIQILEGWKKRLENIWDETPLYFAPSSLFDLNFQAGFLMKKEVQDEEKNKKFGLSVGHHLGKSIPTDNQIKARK

[5] = test system: BE; test: Cytotoxicity against low NQO1 protein expressing human BE cells by MTT assay; format: functional, cell-based
[6] = test system: NCI-H460; test: Cytotoxicity against high NQO1 protein expressing human H460 cells by MTT assay; format: functional, cell-based
[7] = test system: BE; test: Selectivity ratio of IC50 for human H460 cells IC50 for human BE cells; format: functional

SMILES	IC50 [1] [µM]	IC50 [2] [µM]	Ratio IC50 [3]	Activity [4] [µmol/min/mg]	IC50 [5] [µM]	IC50 [6] [µM]	Ratio IC50 [7]
NC(=O)c1cc(N2CC2)c([N+](=O)[O-])cc1[N+](=O)[O-] [TRETAZICAR]	88.8	0.15	586	3.56			
C[n+]1c2ccccc2cc2[n-]c3cc([N+](=O)[O-])c(Br)cc3c21	0.36	0.32		13.9	0.58	0.38	
C[n+]1c2ccc(Cl)cc2cc2[n-]c3c([N+](=O)[O-])cccc3c21	0.88	0.82					
Cn1c(/C=C/CO)c(CO)c2c1C(=O)C=C(N1CC1)C2=O [APAZIQUONE]				79.8	0.6	0.0059	100
C[n+]1c2ccccc2cc2[n-]c3c([N+](=O)[O-])cc(Br)cc3c21	0.24	0.15		8.66	0.78	0.59	
C[n+]1c2ccccc2cc2[n-]c3c([N+](=O)[O-])c(Cl)ccc3c21	0.76	0.64		26.7	1.48	1.88	
C[n+]1c2ccc(Cl)cc2cc2[nH]c3ccc([N+](=O)[O-])cc3c21	0.41	0.28		18.9	0.95	0.46	
C[n+]1c2ccc(F)cc2cc2[n-]c3c([N+](=O)[O-])cc([N+](=O)[O-])cc3c21	0.45	0.19		2.96			
C[n+]1c2ccccc2cc2[n-]c3ccccc3c21 [CRYPTOLEPINE HYDROCHLORIDE]	0.82	0.8		4.53	1.28	1.45	
C[n+]1c2ccccc2cc2[n-]c3cc(Cl)c([N+](=O)[O-])cc3c21	1.03	1.08					
C[n+]1c2ccc(Cl)cc2cc2[n-]c3c([N+](=O)[O-])cc([N+](=O)[O-])cc3c21	0.29	0.23					
C[n+]1c2ccc(F)cc2cc2[n-]c3ccc([N+](=O)[O-])cc3c21	2.13	1.67					
C[n+]1c2ccc(F)cc2cc2[n-]c3c([N+](=O)[O-])cccc3c21	1.35	1.1		2.72			
